# Measurements: patent publication US10131657B2, “Bromodomain inhibitors” (AbbVie Inc., priority 2013, dated 2018)
# System: breast cancer cell line MX-1
# Experiment: MX-1 cell line proliferation assay, Method A
# Format: cell-based
# Settings: Homo sapiens, MX1; MX-1 cells, 96-well, 72 hours, Cell Titer Glo; read-out: Cellular proliferation: EC50 Method A
# Description: The impact of compounds of the Examples on cancer cell proliferation was determined using the breast cancer cell line MX-1 (ATCC) in a 3-day proliferation assay and the data are reported in Table 1.
# MX-1 cells were maintained in RPMI 1640 medium (Sigma) supplemented with 10% FBS at 37° C. and an atmosphere of 5% CO2. For compound testing, MX-1 cells were plated in 96-well black bottom plates at a density of 5000 cells/well in 90 μL of culture media and incubated at 370 overnight to allow cell adhesion and spreading. Compound dilution series were prepared in DMSO via a 3-fold serial dilution from 3 mM to 0.1 μM. The DMSO dilution series were then diluted 1:100 in phosphate buffered saline, and 10 μL of the resulted solution were added to the appropriate wells of the MX-1 cell plate. The final compound concentrations in the wells were 3, 1, 0.3, 0.1, 0.03, 0.01, 0.003, 0.001, 0.0003 and 0.0001 μM.
# Luminescence readings from the Cell Titer Glo assay were normalized to the DMSO treated cells and analyzed using the GraphPad Prism software with sigmoidal curve fitting to obtain ECs50s. The minimum significant ratio (MSR) was determined to evaluate assay reproducibility (Eastwood et al., (2006) J Biomol Screen, 11: 253-261).
row,SMILES,EC50 [nM]
1,"Cn1cc(-c2cc(S(C)(=O)=O)ccc2Oc2cccc(C(=O)N3CCC(N4CCCC4)CC3)c2)c2cc[nH]c2c1=O [Example 24, 6-methyl-4-[5-(methylsulfonyl)-2-(3-{[4-(pyrrolidin-1-yl)piperidin-1-yl]carbonyl}phenoxy)phenyl]-1,6-dihydro-7H-pyrrolo[2,3-c]pyridin-7-one]",> 1000
2,"Cn1cc(-c2cc(S(C)(=O)=O)ccc2Oc2cccc(C(=O)NC3CCCCC3)c2)c2cc[nH]c2c1=O [Example 25, N-cyclohexyl-3-[2-(6-methyl-7-oxo-6,7-dihydro-1H-pyrrolo[2,3-c]pyridin-4-yl)-4-(methylsulfonyl)phenoxy]benzamide]",134
3,"Cn1cc(-c2cc(S(C)(=O)=O)ccc2Oc2cccc(C(=O)NCCCN3CCCC3=O)c2)c2cc[nH]c2c1=O [Example 27, 3-[2-(6-methyl-7-oxo-6,7-dihydro-1H-pyrrolo[2,3-c]pyridin-4-yl)-4-(methylsulfonyl)phenoxy]-N-[3-(2-oxopyrrolidin-1-yl)propyl]benzamide]",442
4,"Cn1cc(-c2cc(S(C)(=O)=O)ccc2Oc2cccc(C(=O)N3CCN(C4CCCC4)CC3)c2)c2cc[nH]c2c1=O [Example 28, 4-[2-{3-[(4-cyclopentylpiperazin-1-yl)carbonyl]phenoxy}-5-(methylsulfonyl)phenyl]-6-methyl-1,6-dihydro-7H-pyrrolo[2,3-c]pyridin-7-one]",195
5,"CN(C)CCN1CCN(C(=O)c2cccc(Oc3ccc(S(C)(=O)=O)cc3-c3cn(C)c(=O)c4[nH]ccc34)c2)CC1 [Example 29, 4-{2-[3-({4-[2-(dimethylamino)ethyl]piperazin-1-yl}carbonyl)phenoxy]-5-(methylsulfonyl)phenyl}-6-methyl-1,6-dihydro-7H-pyrrolo[2,3-c]pyridin-7-one]",> 1000
6,"CC(=O)N1CCN(C(=O)c2cccc(Oc3ccc(S(C)(=O)=O)cc3-c3cn(C)c(=O)c4[nH]ccc34)c2)CC1 [Example 30, 4-[2-{3-[(4-acetylpiperazin-1-yl)carbonyl]phenoxy}-5-(methylsulfonyl)phenyl]-6-methyl-1,6-dihydro-7H-pyrrolo[2,3-c]pyridin-7-one]",> 1000
7,"Cn1cc(-c2cc(S(C)(=O)=O)ccc2Oc2cccc(C(=O)N3CCC(C(F)(F)F)CC3)c2)c2cc[nH]c2c1=O [Example 31, 6-methyl-4-[5-(methylsulfonyl)-2-(3-{[4-(trifluoromethyl)piperidin-1-yl]carbonyl}phenoxy)phenyl]-1,6-dihydro-7H-pyrrolo[2,3-c]pyridin-7-one]",443
8,"CN(C)CCNC(=O)c1cccc(Oc2ccc(S(C)(=O)=O)cc2-c2cn(C)c(=O)c3[nH]ccc23)c1 [Example 33, N-[2-(dimethylamino)ethyl]-3-[2-(6-methyl-7-oxo-6,7-dihydro-1H-pyrrolo[2,3-c]pyridin-4-yl)-4-(methylsulfonyl)phenoxy]benzamide]",> 1000
9,"Cn1cc(-c2cc(S(C)(=O)=O)ccc2Oc2cccc(C(=O)NC[C@H]3CCCO3)c2)c2cc[nH]c2c1=O [Example 34, 3-[2-(6-methyl-7-oxo-6,7-dihydro-1H-pyrrolo[2,3-c]pyridin-4-yl)-4-(methylsulfonyl)phenoxy]-N-[(2R)-tetrahydrofuran-2-ylmethyl]benzamide]",155
10,"Cn1cc(-c2cc(S(C)(=O)=O)ccc2Oc2cccc(C(=O)NCCN3CCCC3)c2)c2cc[nH]c2c1=O [Example 35, 3-[2-(6-methyl-7-oxo-6,7-dihydro-1H-pyrrolo[2,3-c]pyridin-4-yl)-4-(methylsulfonyl)phenoxy]-N-[2-(pyrrolidin-1-yl)ethyl]benzamide]",406
11,"Cn1cc(-c2cc(S(C)(=O)=O)ccc2Oc2cccc(C(=O)NCc3cc(F)cc(F)c3)c2)c2cc[nH]c2c1=O [Example 36, N-(3,5-difluorobenzyl)-3-[2-(6-methyl-7-oxo-6,7-dihydro-1H-pyrrolo[2,3-c]pyridin-4-yl)-4-(methylsulfonyl)phenoxy]benzamide]",255
12,"Cn1cc(-c2cc(S(C)(=O)=O)ccc2Oc2cccc(NS(=O)(=O)Cc3ccccc3)c2)c2cc[nH]c2c1=O [Example 38, N-{3-[2-(6-methyl-7-oxo-6,7-dihydro-1H-pyrrolo[2,3-c]pyridin-4-yl)-4-(methylsulfonyl)phenoxy]phenyl}-1-phenylmethanesulfonamide]",103
13,"COc1ccc(S(=O)(=O)Nc2cccc(Oc3ccc(S(C)(=O)=O)cc3-c3cn(C)c(=O)c4[nH]ccc34)c2)cc1 [Example 39, 4-methoxy-N-{3-[2-(6-methyl-7-oxo-6,7-dihydro-1H-pyrrolo[2,3-c]pyridin-4-yl)-4-(methylsulfonyl)phenoxy]phenyl}benzenesulfonamide]",97.4
14,"Cn1cc(-c2cc(S(C)(=O)=O)ccc2Oc2cccc(NS(=O)(=O)c3cccc(F)c3)c2)c2cc[nH]c2c1=O [Example 40, 3-fluoro-N-{3-[2-(6-methyl-7-oxo-6,7-dihydro-1H-pyrrolo[2,3-c]pyridin-4-yl)-4-(methylsulfonyl)phenoxy]phenyl}benzenesulfonamide]",143
15,"COc1cccc(S(=O)(=O)Nc2cccc(Oc3ccc(S(C)(=O)=O)cc3-c3cn(C)c(=O)c4[nH]ccc34)c2)c1 [Example 42, 3-methoxy-N-{3-[2-(6-methyl-7-oxo-6,7-dihydro-1H-pyrrolo[2,3-c]pyridin-4-yl)-4-(methylsulfonyl)phenoxy]phenyl}benzenesulfonamide]",157
16,"Cn1cc(-c2cc(S(C)(=O)=O)ccc2Oc2cccc(NS(=O)(=O)c3ccc([N+](=O)[O-])cc3)c2)c2cc[nH]c2c1=O [Example 43, N-{3-[2-(6-methyl-7-oxo-6,7-dihydro-1H-pyrrolo[2,3-c]pyridin-4-yl)-4-(methylsulfonyl)phenoxy]phenyl}-4-nitrobenzenesulfonamide]",451
17,"CC(=O)c1ccc(S(=O)(=O)Nc2cccc(Oc3ccc(S(C)(=O)=O)cc3-c3cn(C)c(=O)c4[nH]ccc34)c2)cc1 [Example 44, 4-acetyl-N-{3-[2-(6-methyl-7-oxo-6,7-dihydro-1H-pyrrolo[2,3-c]pyridin-4-yl)-4-(methylsulfonyl)phenoxy]phenyl}benzenesulfonamide]",391
18,"CC(C)c1ccc(S(=O)(=O)Nc2cccc(Oc3ccc(S(C)(=O)=O)cc3-c3cn(C)c(=O)c4[nH]ccc34)c2)cc1 [Example 46, N-{3-[2-(6-methyl-7-oxo-6,7-dihydro-1H-pyrrolo[2,3-c]pyridin-4-yl)-4-(methylsulfonyl)phenoxy]phenyl}-4-(propan-2-yl)benzenesulfonamide]",43.1
19,"Cn1cc(-c2cc(S(C)(=O)=O)ccc2Oc2cccc(NS(=O)(=O)c3cccc(OC(F)F)c3)c2)c2cc[nH]c2c1=O [Example 48, 3-(difluoromethoxy)-N-{3-[2-(6-methyl-7-oxo-6,7-dihydro-1H-pyrrolo[2,3-c]pyridin-4-yl)-4-(methylsulfonyl)phenoxy]phenyl}benzenesulfonamide]",172
20,"Cn1cc(-c2cc(S(C)(=O)=O)ccc2Oc2cccc(NS(=O)(=O)C3CC3)c2)c2cc[nH]c2c1=O [Example 49, N-{3-[2-(6-methyl-7-oxo-6,7-dihydro-1H-pyrrolo[2,3-c]pyridin-4-yl)-4-(methylsulfonyl)phenoxy]phenyl}cyclopropanesulfonamide]",73.8
21,"Cc1cccc(S(=O)(=O)Nc2cccc(Oc3ccc(S(C)(=O)=O)cc3-c3cn(C)c(=O)c4[nH]ccc34)c2)c1 [Example 50, 3-methyl-N-{3-[2-(6-methyl-7-oxo-6,7-dihydro-1H-pyrrolo[2,3-c]pyridin-4-yl)-4-(methylsulfonyl)phenoxy]phenyl}benzenesulfonamide]",40.5
22,"Cn1cc(-c2cc(S(C)(=O)=O)ccc2Oc2cccc(NS(=O)(=O)c3cccc([N+](=O)[O-])c3)c2)c2cc[nH]c2c1=O [Example 51, N-{3-[2-(6-methyl-7-oxo-6,7-dihydro-1H-pyrrolo[2,3-c]pyridin-4-yl)-4-(methylsulfonyl)phenoxy]phenyl}-3-nitrobenzenesulfonamide]",> 1000
23,"Cc1cc(F)ccc1S(=O)(=O)Nc1cccc(Oc2ccc(S(C)(=O)=O)cc2-c2cn(C)c(=O)c3[nH]ccc23)c1 [Example 52, 4-fluoro-2-methyl-N-{3-[2-(6-methyl-7-oxo-6,7-dihydro-1H-pyrrolo[2,3-c]pyridin-4-yl)-4-(methylsulfonyl)phenoxy]phenyl}benzenesulfonamide]",38.6
24,"Cn1cc(-c2cc(S(C)(=O)=O)ccc2Oc2cccc(NS(=O)(=O)c3ccc(S(C)(=O)=O)cc3)c2)c2cc[nH]c2c1=O [Example 54, N-{3-[2-(6-methyl-7-oxo-6,7-dihydro-1H-pyrrolo[2,3-c]pyridin-4-yl)-4-(methylsulfonyl)phenoxy]phenyl}-4-(methylsulfonyl)benzenesulfonamide]",> 1000
25,"Cn1cc(-c2cc(S(C)(=O)=O)ccc2Oc2cccc(NS(=O)(=O)c3ccccc3C#N)c2)c2cc[nH]c2c1=O [Example 55, 2-cyano-N-{3-[2-(6-methyl-7-oxo-6,7-dihydro-1H-pyrrolo[2,3-c]pyridin-4-yl)-4-(methylsulfonyl)phenoxy]phenyl}benzenesulfonamide]",393
26,"Cn1cc(-c2cc(S(C)(=O)=O)ccc2Oc2cccc(NS(=O)(=O)c3cccc(C#N)c3)c2)c2cc[nH]c2c1=O [Example 57, 3-cyano-N-{3-[2-(6-methyl-7-oxo-6,7-dihydro-1H-pyrrolo[2,3-c]pyridin-4-yl)-4-(methylsulfonyl)phenoxy]phenyl}benzenesulfonamide]",> 1000
